According to the supplement of paper PMC8837787:

Tested on: Saccharomyces cerevisiae ABC16-Green Monster
Conditions: 18 h; 30 °C; YPD
Outline: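 Drug-sensitive S. cerevisiae ABC16-Green Monster cells were grown to log phase in YPD and dispensed at 200 µl per well into 96-well plates. Cultures were treated in biological duplicate with eight 1:2 compound dilutions (final 0.1–150 μM), alongside untreated cultures, for 18 h at 30 °C, and OD600 was read at 0 h and 18 h. IC50 was obtained by variable-slope nonlinear regression of log(inhibitor) versus response in GraphPad Prism, using background-subtracted readings.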

Cc1ccc2c(Br)cc(Br)c(OC(=O)c3ccccc3)c2n1 [Broxaldine]
IC50 growth inhibition: 2.24 µM

CC1(C)c2nc(-c3ccc(F)cc3)c(Nc3ccc(Cl)cc3)n2CCN1C(=O)CN [GNF179]
IC50 growth inhibition: 38 µM

Nc1[nH]c(=O)ncc1F [Flucytosine]
IC50 growth inhibition: 15.1 µM

Cc1[nH]c2ccccc2c1C(c1cccs1)N1CCN(C)CC1 (centres undefined)
IC50 growth inhibition: 35.9 µM

Cc1cc(NS(=O)(=O)c2ccc(Nc3nc(-c4ccc(Cl)c(Cl)c4)cs3)cc2)no1 [CBR410]
IC50 growth inhibition: 4.87 µM

O=C(COc1cccc(F)c1)Nc1nc(-c2ccccn2)cs1
IC50 growth inhibition: 35.1 µM

Cc1cc(NCCc2ccccc2)nc(NC(=N)Nc2ccc(Cl)cc2)n1
IC50 growth inhibition: 53.8 µM

CC1N(C)c2ccc(/C=C/c3cc[n+](C)cc3)cc2C1(C)C (centres undefined)
IC50 growth inhibition: 55.2 µM

COc1ccc(-c2nnc3ccc(-c4cccc(C(C)C)c4)cn23)cc1OC
IC50 growth inhibition: 52.3 µM

COc1cc(C)c2c(Oc3cccc(C(F)(F)F)c3)c(OC)cc(NC(C)CCCN)c2n1 (centres undefined) [Tafenoquine]
IC50 growth inhibition: 101 µM

FC(F)(F)c1cccc(-c2nc3c(NCc4ccncc4)nccc3[nH]2)c1
IC50 growth inhibition: 41.6 µM

COc1ccc2nc(S(=O)Cc3ncc(C)c(OC)c3C)[nH]c2c1 (centres undefined) [Omeprazole]
IC50 growth inhibition: > 75 µM

CC(c1cc(Cl)cc(Cl)c1)N(C)c1ncc2c(N)nc(N)nc2n1 (centres undefined)
IC50 growth inhibition: 40.1 µM

Fc1ccc2[nH]c3c(N4CCN(C(c5ccccc5)c5ccccc5)CC4)ncnc3c2c1 [GNF-Pf-2775]
IC50 growth inhibition: 0.723 µM

CC(C)(C)C1CCc2[nH]c3ccccc3c(=O)c2C1 (centres undefined) [GNF-Pf-3815]
IC50 growth inhibition: 60.3 µM

CCC(C(C)O)n1ncn(-c2ccc(N3CCN(c4ccc(OCC5COC(Cn6cncn6)(c6ccc(F)cc6F)C5)cc4)CC3)cc2)c1=O (centres undefined) [Posaconazole]
IC50 growth inhibition: 0.71 µM

O=C1C2=C(Nc3ccccc3SC2c2ccc(OCc3ccccc3)cc2)c2ccccc21 (centres undefined) [GNF-PF-5338]
IC50 growth inhibition: > 150 µM

O=C(Nc1ccc(Cl)c(Cl)c1)Nc1ccc(Cl)c(Cl)c1
IC50 growth inhibition: 0.32 µM

NC(=O)N1CCC(CC(=O)N2CCC([C@H]3c4ncc(Br)cc4CCc4cc(Cl)cc(Br)c43)CC2)CC1 [Lonarfanib]
IC50 growth inhibition: 20.4 µM

CN(C)c1ccc(C(O)(c2ccc(N(C)C)cc2)c2ccc(N(C)C)cc2)cc1
IC50 growth inhibition: 0.317 µM

C[C@H]1Cc2c([nH]c3cc(Cl)c(F)cc23)[C@@]2(N1)C(=O)Nc1ccc(Cl)cc12 [KAE609]
IC50 growth inhibition: 7.65 µM

COC1=CC(=O)CC(C)C12Oc1c(Cl)c(OC)cc(OC)c1C2=O (centres undefined) [Griseofulvin]
IC50 growth inhibition: > 75 µM

CC(=O)OC1c2nc(cs2)C(=O)OC(CCCC(C)(Cl)Cl)C(C)C(=O)OC(C(C)(C)O)c2nc(cs2)C(=O)OC1(C)C (centres undefined) [Hectochlorin]
IC50 growth inhibition: 0.25 µM

CC(=O)Nc1cccc(-n2c(=O)n(C3CC3)c(=O)c3c(Nc4ccc(I)cc4F)n(C)c(=O)c(C)c32)c1 [Trametinib]
IC50 growth inhibition: > 75 µM

C=CCc1ccc(O)c(-c2ccc(O)c(CC=C)c2)c1 [Honokiol]
IC50 growth inhibition: 13.2 µM

COc1ccccc1C(C)NCC(=O)Nc1cc(C(F)(F)F)ccc1Cl (centres undefined)
IC50 growth inhibition: 32.4 µM

Cc1cc(C(=O)NNC(=O)c2c(C)nc3ccccn23)c2nc3n(c2n1)CCCCC3
IC50 growth inhibition: 41.8 µM

c1ccc(-c2cn3nc(N4CCN(Cc5cn6ccccc6n5)CC4)sc3n2)cc1
IC50 growth inhibition: 50.8 µM

c1ccc(CNc2nc(Nc3ccccc3)nc3ccccc23)cc1
IC50 growth inhibition: 8.62 µM

Cc1cc(C(=O)NCCc2cccc(F)c2)c(C)n1C(C)C
IC50 growth inhibition: 20.7 µM

COc1ccc(Cn2cnc3c(-c4ccco4)nc(Cl)nc32)cc1
IC50 growth inhibition: 51.6 µM

Cc1nc([P+](c2ccccc2)(c2ccccc2)c2ccccc2)c(SCc2ccccc2)o1 [GNF-Pf-3891]
IC50 growth inhibition: 5.85 µM

CCCCCc1nnc(NC(=O)c2nccnc2N)s1
IC50 growth inhibition: 74.2 µM

CC(=O)NCC1CN(c2ccc(N3CCSCC3)c(F)c2)C(=O)O1 (centres undefined) [Sutezolid]
IC50 growth inhibition: > 75 µM

CCOC(=O)c1c(NC(=O)CNCc2ccccn2)sc(CC)c1C
IC50 growth inhibition: 47.8 µM

CC1=NN(c2nc3ccccc3s2)C(=O)C1Cc1cccc2ccccc12 (centres undefined)
IC50 growth inhibition: 40.7 µM

COC1CC2CCC(C)C(O)(O2)C(=O)C(=O)N2CCCCC2C(=O)OC(C(C)CC2CCC(OCCO)C(OC)C2)CC(=O)C(C)C=C(C)C(O)C(OC)C(=O)C(C)CC(C)C=CC=CC=C1C (centres undefined) [Everolimus]
IC50 growth inhibition: 0.0415 µM

Cc1ccc(NC(=O)c2ccc(CN3CCN(C)CC3)cc2)cc1Nc1nccc(-c2cccnc2)n1 [Imatinib]
IC50 growth inhibition: > 75 µM

CCC1(O)C(=O)OCc2c1cc1n(c2=O)Cc2cc3ccccc3nc2-1 (centres undefined) [Camptothecin]
IC50 growth inhibition: 1.61 µM

CCn1nc(-c2ccc(C(=O)OC)cc2)nc2c(=O)n(C)c(=O)nc1-2
IC50 growth inhibition: 0.601 µM

Cc1cc(NC(=O)C(C)C)n(-c2nc(C)c(C)c(=O)[nH]2)n1
IC50 growth inhibition: 3.87 µM

CCc1ccc(Nc2cc(C)c3ccc(O)cc3n2)cc1
IC50 growth inhibition: 2.09 µM

OC(CNC1CCCCC1)Cn1c2ccc(I)cc2c2cc(I)ccc21 (centres undefined)
IC50 growth inhibition: 3.98 µM

CCCc1cc(N2CCN(C)CC2)n2ncc(-c3ccccc3)c2n1
IC50 growth inhibition: 47 µM

O=C1CCC(N2C(=O)c3ccccc3C2=O)C(=O)N1 (centres undefined) [Thalidomide]
IC50 growth inhibition: > 75 µM

COc1ccc2cc(CN(C)CC(=O)Nc3sccc3C(N)=O)ccc2c1
IC50 growth inhibition: 60.6 µM

COc1cc2c(c(OC)c1OC)-c1ccc(OC)c(=O)cc1C(NC(C)=O)CC2 (centres undefined) [Colchicine]
IC50 growth inhibition: > 75 µM

Oc1ccc(C(=C(Cl)Cl)c2ccc(O)cc2)cc1
IC50 growth inhibition: 6.96 µM

FC(F)Sc1ccc2nc3ccccc3c(N3CCOCC3)c2c1
IC50 growth inhibition: 30 µM

Clc1ccccc1-c1nc([P+](c2ccccc2)(c2ccccc2)c2ccccc2)c(N2CCOCC2)o1 [GNF-PF-2863]
IC50 growth inhibition: 8.55 µM

CN[C@H]1C[C@@H](N)[C@H](O)[C@@H](O[C@@H]2O[C@H](CO)[C@H](O)[C@@H]3O[C@@]4(O[C@H]23)O[C@H]([C@H](N)CO)[C@H](O)[C@H](O)[C@H]4O)[C@@H]1O [Hygromycin B]
IC50 growth inhibition: 13.8 µM

Cn1c(N)c(C(=O)CSc2nnc(-c3ccccc3)c(-c3ccccc3)n2)c(=O)n(C)c1=O
IC50 growth inhibition: 22.9 µM

OC1=C2C(=Nc3ccccc3SC2c2ccccc2)c2ccccc21 (centres undefined) [GNF-Pf-4583]
IC50 growth inhibition: 2.54 µM

Cc1[nH]c2ccccc2c(=O)c1CC=C(Cl)Cl [GNF-Pf-4439]
IC50 growth inhibition: > 150 µM

O=C(CC1NCCCC1O)Cn1cnc2ccccc2c1=O (centres undefined) [Febrifugine]
IC50 growth inhibition: > 75 µM

CN1CCN(S(=O)(=O)c2ccc(-c3ccc4c(Nc5ncc(Cl)cn5)ccnc4c3)cc2)CC1
IC50 growth inhibition: 43.4 µM

CN(C)c1cc(NC(=O)Nc2ccccc2)c2ccccc2n1
IC50 growth inhibition: 39.4 µM

CC1CCC2C(C)C(=O)OC3OC4(C)CCC1C32OO4 (centres undefined) [Artemisinin]
IC50 growth inhibition: 34.3 µM

CN(Cc1ccc(Cl)s1)C(=O)Cn1ncc(Br)c(Br)c1=O
IC50 growth inhibition: 24.2 µM

OC(CNCC1CCCO1)Cn1c2ccc(Cl)cc2c2cc(Cl)ccc21 (centres undefined)
IC50 growth inhibition: 4.91 µM

O=C(C1CCCCC1)N1CC(=O)N2CCc3ccccc3C2C1 (centres undefined) [Praziquantal]
IC50 growth inhibition: > 75 µM

Cc1cc(C(=O)Cn2nnc3ccccc3c2=O)c(C)n1-c1ccccc1F
IC50 growth inhibition: 20.5 µM

CSc1nc2cc(Oc3cccc(Cl)c3Cl)c(Cl)cc2[nH]1 [Triclabendazole]
IC50 growth inhibition: 6.29 µM

CC(C)Cn1c2c(c(O)c(C(=O)Nc3ncccc3O)c1=O)CCCC2 [CBR572]
IC50 growth inhibition: 46.9 µM

O=C1c2ccccc2C2=Nc3ccccc3SC(c3cccc(F)c3)C12 (centres undefined)
IC50 growth inhibition: 1.68 µM

Cc1ccc2c(c1C)NC(=O)C21NN=C(c2ccccc2)S1 (centres undefined)
IC50 growth inhibition: 10.2 µM

CC(C)(C)c1ccc(C(=N)NOC(=O)c2sccc2Cl)cc1
IC50 growth inhibition: 8.34 µM

C[C@H](c1ccc2c(c1)CCCC2)N(C)c1ncc2c(N)nc(N)nc2n1
IC50 growth inhibition: 30.5 µM

O=C1c2ccccc2C2=Nc3ccccc3SC(c3ccccc3F)C12 (centres undefined) [GNF-Pf-3582]
IC50 growth inhibition: 5.87 µM

CC(C)(C)n1nc(Cc2cccc3ccccc23)c2c(N)ncnc21
IC50 growth inhibition: 27.6 µM

Nc1ccc2ncnc(Nc3ccc(OCc4cccc(F)c4)c(Cl)c3)c2c1
IC50 growth inhibition: 18.7 µM

C[C@H]1CC[C@H](n2c3cnccc3c3cnc(Nc4ccc5c(n4)CCN(C(=O)CO)C5)nc32)CC1 [AMG 925]
IC50 growth inhibition: > 75 µM

CC(C)c1cc(NCc2ccccn2)n2ncc(-c3ccccc3)c2n1
IC50 growth inhibition: 0.45 µM

O=C(Nc1nnc(-c2ccc(Cl)cc2)o1)c1cccc(C(F)(F)F)c1
IC50 growth inhibition: 71.2 µM

O=C(C(Cc1c[nH]c2ccccc12)NS(=O)(=O)c1ccc(Cl)cc1)N1CCCCC1 (centres undefined)
IC50 growth inhibition: 42.4 µM

CC1CCCC=CC2CC(O)CC2C(O)C=CC(=O)O1 (centres undefined) [Brefeldin A]
IC50 growth inhibition: 31.9 µM

COc1cccc2c1C(=O)c1c(O)c3c(c(O)c1C2=O)CC(O)(C(=O)CO)CC3OC1CC(N)C(O)C(C)O1 (centres undefined) [Doxorubicin]
IC50 growth inhibition: 11.2 µM

Nc1ccc(C(=O)Nc2ccc(-c3nc4ccccc4o3)cc2)cc1
IC50 growth inhibition: 19 µM

O=C(Nc1nc(-c2ccccn2)cs1)c1ccccc1Br
IC50 growth inhibition: 8.35 µM

CC(=O)c1ccc(-c2ccc(C(=O)N3CCCc4ccccc43)o2)cc1
IC50 growth inhibition: 52.4 µM

COc1cc(C2c3cc4c(cc3C(OC3OC5COC(C)OC5C(O)C3O)C3COC(=O)C23)OCO4)cc(OC)c1O (centres undefined) [Etoposide]
IC50 growth inhibition: 23.6 µM

CN(C)c1oc(-c2ccc(Cl)cc2Cl)nc1[P+](c1ccccc1)(c1ccccc1)c1ccccc1 [GNF-Pf-2545]
IC50 growth inhibition: 4.53 µM

CC1CC(C)C(=O)C(C(O)CC2CC(=O)NC(=O)C2)C1 (centres undefined) [Cycloheximide]
IC50 growth inhibition: 0.0378 µM

O=C(c1cccs1)N1CCN(c2ccc([N+](=O)[O-])c(NC3CC3)c2)CC1 [GNF-Pf-3455]
IC50 growth inhibition: > 150 µM
